Article PMC6724197 (Journal of chemical ecology, 2018)

Columns and labels:
[1] = system: mountain cottontails (Sylvilagus nuttallii); assay: Two-choice feeding trial: single monoterpene diet vs monoterpene mixture diet; type: in vivo
[2] = system: pygmy rabbits (Brachylagus idahoensis); assay: as above; type: in vivo; settings: for percentage of single monoterpene in the diet relative to monoterpene mixture: pygmy rabbits
digestive enzyme = settings: in a generalist more than in a specialist avian folivore; ref Kohl et al. 2015; cited from earlier work

SMILES | amount of single monoterpene diet consumed relative to monoterpene mixture [1] | percentage of single monoterpene in the diet relative to monoterpene mixture [2] | amount of monoterpene mixture consumed relative to single monoterpene diet [1] | effect on digestive enzyme activity (digestive enzyme) | proportion consumed by pygmy rabbits relative to cottontails ([2]; pygmy rabbits vs mountain cottontails)
C=C1C2CCC(C2)C1(C)C (centres unmarked) [camphene] | more than five times |  |  |  | 
CC12CCC(CC1)C(C)(C)O2 [1,8-cineole] | 24 times | twice |  |  | 
CC12CCC(CC1=O)C2(C)C (centres unmarked) [camphor] |  | twice | twice | reduced digestive enzyme activity | twice
C=C1CCC2CC1C2(C)C (stereo not drawn) [β-pinene] |  |  | three times |  | 
